Columns and labels:
[1] = tested on: JEB01 keratinocytes; assay: Measurement of intracellular G418 (gentamicin ELISA) in JEB01 keratinocytes; type: cell-based, human; settings: 150 μM AC1903 (Fig. 2F)
Experimental: Figure 2 Effect of AC1903 on PTC readthrough and G418 trafficking.A and B, DMS-114 (A) or TC-71 (B) cells were pretreated with indicated concentrations of AC1903 for 3 h followed by exposure to 400 μg/ml G418. After 3 h medium was replenished and at 24 h cell lysates were prepared and p53 levels were measured. C and E, DMS-114 (C) or JEB01 (E) cells were either left untreated or pretreated with 150 μM AC1903 for 3 h followed by exposure to indicated concentrations of G418 for another 3 h. At 24 h cell lysates were prepared and p53 (C) or Collagen XVII (E) levels were measured. In panels A–C, protein levels were measured by automated capillary electrophoresis Western analysis (using vinculin as loading control). In panel E, protein levels were measured by Western blot (using beta-actin as loading control). […] D, total intracellular levels of G418 were measured in the same lysates as in (C) (n = 5; data normalized to the highest response in each experiment; bars represent mean ± SD). F, total intracellular levels of G418 were measured in the same lysates as in (E) (n = 2; data normalized to the highest response in each experiment; bars represent mean ± SD). ∗ indicates statistically significant difference between samples according to one-way ANOVA (p < 0.05). […]

[2] = tested on: TRPC3, TRPC4, TRPC5, TRPC6, TRPC4–C1, TRPC5–C1, endogenous TRPC1:C4 channels; assay: Summary of TRPC channel inhibition by AC1903; type: cell-based; settings: TRPC3, TRPC4, TRPC5, TRPC6, TRPC4–C1, TRPC5–C1, endogenous TRPC1:C4 in A498; read-out: IC50 values over multiple TRPC channels
Description: Nonsense mutations, which occur in ∼11% of patients with genetic disorders, introduce premature termination codons (PTCs) that lead to truncated proteins and promote nonsense-mediated mRNA decay. Aminoglycosides such as G418 permit PTC readthrough and so may be used to address this problem. However, their effects are variable between patients, making clinical use of aminoglycosides challenging. In this study, we tested whether TRPC nonselective cation channels contribute to the variable PTC readthrough effect of aminoglycosides by controlling their cellular uptake. […] In addition, our data strengthen the hypothesis that nonselective calcium channels are involved in aminoglycoside uptake.
[Ca^2+]i recordings were carried out using the ratiometric Ca^2+ dye Fura-2. 24 h prior to experiments, cells were plated either onto black, clear bottom poly-D-lysine-coated 96-well plates (HEK cells) or clear 96-well plates (A498 cells, CHO cells) at 50,000 cells per well (HEK cells) or 20,000 cells per well (A498 cells, CHO cells). For tetracycline-inducible HEK T-REx cells, protein expression was induced with tetracycline (TRPC channels: 1 μg ml^−1; hPiezo1: 100 ng ml^−1) at this point. […]

Q: `c1ccc(Cn2c(NCc3ccco3)nc3ccccc32)cc1` [AC1903] was tested. Which “intracellular G418 levels in cells exposed to AC1903” value [1] did it give?
A: The value was “significantly declined”.

Q: And the IC50 [2]?
A: The IC50 was 1.8 to 18 µM.

— article PMC8808171, “Nonselective TRPC channel inhibition and suppression of aminoglycoside-induced premature termination codon readthrough by the small molecule AC1903” (The Journal of Biological Chemistry, 2022)
